From ChEMBL document CHEMBL1158716, “Sesquiterpenoids and plasmin-inhibitory flavonoids from Blumea balsamifera” (J Nat Prod, 2005)

Key:
Plasminogen = Plasminogen (Homo sapiens, UniProt P00747); test: Inhibition of plasmin
Jurkat = test: Cytotoxicity against human Jurkat cells; assay type: functional, cell-based

Plasminogen, sequence (P00747 97-580 limits assumed): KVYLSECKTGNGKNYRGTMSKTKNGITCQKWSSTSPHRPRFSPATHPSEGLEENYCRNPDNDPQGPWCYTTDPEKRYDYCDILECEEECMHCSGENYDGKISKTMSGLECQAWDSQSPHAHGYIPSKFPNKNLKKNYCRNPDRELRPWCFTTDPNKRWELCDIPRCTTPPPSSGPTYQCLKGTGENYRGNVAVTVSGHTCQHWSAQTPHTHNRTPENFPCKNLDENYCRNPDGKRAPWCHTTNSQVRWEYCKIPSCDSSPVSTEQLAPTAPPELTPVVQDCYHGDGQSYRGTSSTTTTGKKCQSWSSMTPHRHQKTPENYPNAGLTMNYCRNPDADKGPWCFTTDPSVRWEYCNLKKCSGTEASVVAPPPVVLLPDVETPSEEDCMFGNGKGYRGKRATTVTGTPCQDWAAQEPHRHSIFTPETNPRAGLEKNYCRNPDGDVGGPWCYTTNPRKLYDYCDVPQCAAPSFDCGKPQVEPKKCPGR
Plasminogen, sequence (P00747 581-810 limits assumed): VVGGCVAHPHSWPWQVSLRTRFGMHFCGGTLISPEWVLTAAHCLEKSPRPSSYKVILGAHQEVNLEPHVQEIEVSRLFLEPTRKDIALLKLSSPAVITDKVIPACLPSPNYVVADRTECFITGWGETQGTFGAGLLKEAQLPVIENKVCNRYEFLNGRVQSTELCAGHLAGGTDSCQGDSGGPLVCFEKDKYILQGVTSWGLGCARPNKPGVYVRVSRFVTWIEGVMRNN

Structure (SMILES)	IC50 (Plasminogen) [nM]	IC50 (Jurkat) [nM]
COc1cc(O)c2c(=O)c(OC)c(-c3ccc(O)c(O)c3)oc2c1	1500	
COc1cc(O)c2c(=O)cc(-c3ccc(O)c(O)c3)oc2c1	2300	
C/C1=C\C(=O)[C@@H](C(C)C)C[C@@H](OC(=O)[C@]2(C)O[C@@H]2C)[C@](C)(O)C(=O)CC1		26200
C=C1CC[C@@]2(O)[C@H]1C(=O)[C@@H](C(C)C)C[C@@H](OC(=O)/C(C)=C\C)[C@]2(C)O		> 70000
CC(=O)N[C@@H](CC(C)C)C(=O)N[C@@H](CC(C)C)C(=O)N[C@H](C=O)CCCNC(=N)N [LEUPEPTIN]	1200	
